# In patent US8497289B2, “3.1.0 bicyclic GlyT1 inhibitors and methods of making and using same” (Vanderbilt University, priority 2008, dated 2013):
# Molecular target: T1, GlyT1 (Homo sapiens, UniProt P48067)
# T1 construct: Human placental choriocarcinoma cells endogenously expressing GlyT1; host or cells: JAR cells (human placental choriocarcinoma)
# T1 sequence (P48067 1-706): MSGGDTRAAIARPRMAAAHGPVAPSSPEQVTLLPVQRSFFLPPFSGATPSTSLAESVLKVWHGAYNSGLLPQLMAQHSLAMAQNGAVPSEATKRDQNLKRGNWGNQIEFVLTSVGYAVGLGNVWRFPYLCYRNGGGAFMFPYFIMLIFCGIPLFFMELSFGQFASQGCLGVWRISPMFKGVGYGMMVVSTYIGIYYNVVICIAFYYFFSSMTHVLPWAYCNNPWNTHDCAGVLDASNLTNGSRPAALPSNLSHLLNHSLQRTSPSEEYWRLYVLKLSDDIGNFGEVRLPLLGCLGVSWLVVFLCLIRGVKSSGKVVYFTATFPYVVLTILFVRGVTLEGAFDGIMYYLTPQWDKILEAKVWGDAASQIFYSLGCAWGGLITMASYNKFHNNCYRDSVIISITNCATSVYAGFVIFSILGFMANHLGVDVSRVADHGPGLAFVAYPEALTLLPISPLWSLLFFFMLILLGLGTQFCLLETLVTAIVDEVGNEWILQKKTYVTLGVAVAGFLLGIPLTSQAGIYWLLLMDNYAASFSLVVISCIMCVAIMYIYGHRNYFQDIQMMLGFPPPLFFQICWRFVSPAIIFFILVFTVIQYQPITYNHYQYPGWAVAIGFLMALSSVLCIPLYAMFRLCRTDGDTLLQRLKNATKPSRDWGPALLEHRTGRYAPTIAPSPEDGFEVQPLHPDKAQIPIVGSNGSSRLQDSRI
# Test: [14C]-glycine uptake in JAR cells (scintillation proximity, Cytostar T plates)
# Type: cell-based
# Conditions: read-out: Potency
# Description: Human placental choriocarcinoma cells endogenously expressing GlyT1 can be cultured using standard conditions. Cells can then be grown at 37° C. in a humidified atmosphere 40-48 hours before the assay. Culture medium can be removed from the culture plate, and cells can be incubated with an amount of TB1A buffer with or without the compounds of the present invention for a sufficient period of time. Then an amount of [^14C]-glycine diluted with TB1A can be added to each well. After incubation the microplates can be sealed and counted. Non-specific uptake of [^14C]-glycine can be determined in the presence of unlabeled glycine. To determine potencies, a range of concentrations of the compounds of the present invention can be added to the cells, followed by the fixed concentration of [^14C]-glycine. The concentration of the present compound that inhibited half of the specific uptake of [^14C]glycine (IC50 value) can be determined from the assay data by non-linear curve fitting.
# The procedure used was analogous to that disclosed in Williams, J. B.; Mallorga P. J.; Lemaire W.; Williams D. L.; Na S.; Patel S.; Conn J. P.; Pettibone D. J.; Austin C.; Sur C.; “Development of a scintillation proximity assay for analysis of Na+/Cl−-dependent neurotransmitter transporter activity,” ANAL. BIOCHEM.
# Cells were plated at a density of 1.3×10^4 cells/well and grown at 37° C. in a humidified atmosphere of 5% CO2 for 40-48 h. Culture medium was removed from the Cytostar T plate and JAR cells were incubated with 30 μl of TB1A buffer (120 mM NaCl, 2 mM KCl, 1 mM CaCl2, 1 mM MgCl2, 10 mM Hepes, 5 mM L-alanine, pH 7.5 adjusted with 1 M Tris base) with or without multiple concentrations of test compound (added at 2× final concentration) for 1 min. Then 30 μl of [^14C]-glycine (Perkin-Elmer) diluted in TB1A was added to each well to give a final concentration of 10 μM. Cytostar T plates were then incubated in the dark at room temperature for 3 h, sealed with opaque white bottom plate seals (Perkin-Elmer) and clear top plate seals (Topseal A, Perkin-Elmer), and were counted on a Top Count (Packard). Glycine uptake was determined by measuring radioactivity in each well and plotted as a function of concentration of test compound. […] Nonspecific uptake of [^14C]-glycine was determined in the presence of 10 mM cold glycine. [^14C]-taurine (American Radiolabeled Chemicals, Inc.) uptake experiments were performed according to the same protocol except that 10 mM cold taurine was used to determine nonspecific uptake. […] COS-7 cells were transiently transfected with the human GlyT2 cDNA (Origene Technologies Inc., SC303452) using Fugene 6 (Roche) according to the manufacturer's instructions in Dulbecco's modified Eagle's medium (DMEM, Invitrogen) containing 10% Fetal Bovine Serum, 10 mM HEPES, 1 mM sodium pyruvate, penicillin (100 μg/ml), and streptomycin (100 μg/ml). The following day, the cells were plated at a density of 5×10^5 cells/well in Cytostar T plates and maintained at 37° C. in a humidified atmosphere of 5% CO2 for 24 h. GlyT2 glycine uptake experiments were performed according to the same protocol previously described.
row,Structure (SMILES),IC50 [µM]
1,O=C(NCC1(CC2CC2)C2CN(S(=O)(=O)CC3CC3)CC21)c1ccc(F)cc1F (stereo not drawn) [Compound 9i],1.02
2,Cn1cnc(S(=O)(=O)N2CC3C(C2)C3(CNC(=O)c2ccccc2Cl)CC2CC2)c1 (stereo not drawn) [Compound 6b],0.0186
3,Cn1cnc(S(=O)(=O)N2CC3C(C2)C3(CNC(=O)c2ccc(Cl)cc2)CC2CC2)c1 (stereo not drawn) [Compound 6c],0.032
4,CC(C)S(=O)(=O)N1CC2C(C1)C2(CNC(=O)c1ccc(Cl)cc1Cl)CC1CC1 (stereo not drawn) [Compound 8c],3.4
5,Cn1cnc(S(=O)(=O)N2CC3C(C2)C3(CNC(=O)c2c(F)cccc2F)CC2CC2)c1 (stereo not drawn) [Compound 6e],0.004
6,CCCS(=O)(=O)N1CC2C(C1)C2(CNC(=O)c1ccc(Cl)cc1)CC1CC1 (stereo not drawn) [Compound 9c],1.85
7,Cn1cnc(S(=O)(=O)N2CC3C(C2)C3(CNC(=O)c2cccc(C(F)(F)F)c2)CC2CC2)c1 (stereo not drawn) [Compound 6g],0.064
8,CCCS(=O)(=O)N1CC2C(C1)C2(CNC(=O)c1ccc(Cl)cc1Cl)CC1CC1 (stereo not drawn) [Compound 8b],0.361
9,CCCS(=O)(=O)N1CC2C(C1)C2(CNC(=O)c1ccccc1Cl)CC1CC1 (stereo not drawn) [Compound 9b],1.2
10,CCCS(=O)(=O)N1CC2C(C1)C2(CNC(=O)c1cccc(C(F)(F)F)c1)CC1CC1 (stereo not drawn) [Compound 9d],4.5
11,Cn1cnc(S(=O)(=O)N2CC3C(C2)C3(CNC(=O)c2ccccc2C(F)(F)F)CC2CC2)c1 (stereo not drawn) [Compound 6f],0.005
12,Cn1cnc(S(=O)(=O)N2CC3C(C2)C3(CNC(=O)c2cccc(Cl)c2)CC2CC2)c1 (stereo not drawn) [Compound 6j],0.119
13,"O=C(NCC1(CC2CC2)C2CN(S(=O)(=O)CC3CC3)CC21)c1ccc(Cl)cc1Cl (stereo not drawn) [Compound 8d, 2,4-Dichloro-N-((6-(cyclopropylmethyl)-3-(cyclopropylmethylsulfonyl)-3-azabicyclo[3.1.0]hexan-6-yl)methyl)benzamide]",0.231
14,O=C(NCC1(CC2CC2)C2CN(S(=O)(=O)CC3CC3)CC21)c1ccccc1C(F)(F)F (stereo not drawn) [Compound 9g],0.688
15,Cn1cnc(S(=O)(=O)N2CC3C(C2)C3(CNC(=O)c2ccc(Cl)c(Cl)c2)CC2CC2)c1 (stereo not drawn) [Compound 6d],0.082
16,Cn1cnc(S(=O)(=O)N2CC3C(C2)C3(CNC(=O)c2cc(Cl)cc(Cl)c2)CC2CC2)c1 (stereo not drawn) [Compound 6i],0.1
17,Cn1cnc(S(=O)(=O)N2CC3C(C2)C3(CNC(=O)c2ccc(F)cc2F)CC2CC2)c1 (stereo not drawn) [Compound 6h],0.044
18,CCCS(=O)(=O)N1CC2C(C1)C2(CNC(=O)c1ccc(C(F)(F)F)cc1)CC1CC1 (stereo not drawn) [Compound 9e],1.1
19,CCCS(=O)(=O)N1CC2C(C1)C2(CNC(=O)c1ccccc1F)CC1CC1 (stereo not drawn) [Compound 9a],2.1
20,CCS(=O)(=O)N1CC2C(C1)C2(CNC(=O)c1ccc(Cl)cc1Cl)CC1CC1 (stereo not drawn) [Compound 8a],1.3
21,O=C(NCC1(CC2CC2)C2CN(S(=O)(=O)CC3CC3)CC21)c1c(F)cccc1F (stereo not drawn) [Compound 9j],1.02
22,CCCS(=O)(=O)N1CC2C(C1)C2(CNC(=O)c1ccc(F)cc1Cl)CC1CC1 (stereo not drawn) [Compound 9f],0.507
23,O=C(NCC1(CC2CC2)C2CN(S(=O)(=O)CC3CC3)CC21)c1ccc(C(F)(F)F)cc1 (stereo not drawn) [Compound 9h],0.629
24,"Cn1cnc(S(=O)(=O)N2CC3C(C2)C3(CNC(=O)c2ccc(Cl)cc2Cl)CC2CC2)c1 (stereo not drawn) [Compound 6a, 2,4-dichloro-N-((6-(cyclopropylmethyl)-3-(1-methyl-1H-imidazol-4-ylsulfonyl)-3-azabicyclo[3.1.0]hexan-6-yl)methyl)benzamide]",0.0041

# Further lines, results first:
row,IC50 [µM],Structure (SMILES)
1,0.24,"Cn1cnc(S(=O)(=O)N2CC3C(C2)C3(CNC(=O)c2ccc(Cl)cc2Cl)c2ccccn2)c1 (stereo not drawn) [Compound 12d, 2,4-dichloro-N-((3-(1-methyl-1H-imidazol-4-ylsulfonyl)-6-(pyridine-2-yl)-3-azabicyclo[3.1.0]hexan-6-yl)methyl)benzamide]"
2,> 20,O=C(NCC1(c2ccccn2)C2CN(S(=O)(=O)c3ccccn3)CC21)c1ccc(Cl)cc1Cl (stereo not drawn) [Compound 12g]
3,0.457,Cn1cnc(S(=O)(=O)N2CC3C(C2)C3(CNC(=O)c2ccccc2Cl)c2ccccn2)c1 (stereo not drawn) [Compound 13a]
4,> 20,O=C(NCC1(c2ccccn2)C2CN(S(=O)(=O)c3ccccc3)CC21)c1ccc(Cl)cc1Cl (stereo not drawn) [Compound 12f]
5,> 20,Cn1cc(S(=O)(=O)N2CC3C(C2)C3(CNC(=O)c2ccc(Cl)cc2Cl)c2ccccn2)cn1 (stereo not drawn) [Compound 12e]
6,0.19,"Cn1cnc(S(=O)(=O)N2CC3C(C2)C3(CNC(=O)c2ccccc2C(F)(F)F)c2ccccn2)c1 (stereo not drawn) [Compound 13b, 2-Trifluoromethyl-N-((6-(pyridin-2-yl)-3-(1-methyl-1H-imidazol-4-ylsulfonyl)-3-azabicyclo[3.1.0]hexan-6-yl)methyl)benzamide]"
7,> 20,CS(=O)(=O)N1CC2C(C1)C2(CNC(=O)c1ccc(Cl)cc1Cl)c1ccccn1 (stereo not drawn) [Compound 12a]
8,> 20,CCCS(=O)(=O)N1CC2C(C1)C2(CNC(=O)c1ccc(Cl)cc1Cl)c1ccccn1 (stereo not drawn) [Compound 12c]
9,> 20,CCS(=O)(=O)N1CC2C(C1)C2(CNC(=O)c1ccc(Cl)cc1Cl)c1ccccn1 (stereo not drawn) [Compound 12b]
